# Assay results reported in US20260216107A1, “INTERLEUKIN-6 (IL-6)/SIGNAL TRANSDUCER AND ACTIVATOR OF TRANSCRIPTION 3 (STAT3) PATHWAY INHIBITORS FOR USE IN THE TREATMENT OF GRANULOMATOUS DISEASES” (UCL BUSINESS LTD, priority 2023, published 2026).
# Entries after “also recorded” stand apart in the source; their conditions may differ.
# What was measured:
# GPA patients' monocytes = experiment: PR3-stimulated MGC formation (fusion index) in GPA patients' monocytes; type: cell-based, human; conditions: cultured monocytes; Tocilizumab 10 μg/mL
# THP1 monocytes = experiment: PR3-stimulated giant cell formation in THP1 monocytes matured to macrophages; type: cell-based; conditions: PMA 24 hours, PR3 10 mcg/ml 72 hours, with or without Stattic; FIG. 19
# Method: An in vitro model of granulomatous disease was created using THP1 monocytes. The THP1 monocytes were matured to macrophages by the addition of PMA for 24 hours and then stimulated with PR3 at 10 mcg/ml for 72 hours in the presence or absence of Stattic, a STAT3 inhibitor. MGC formation was assessed as before by calculating the fusion index.
# macrophage aggregation = experiment: PR3-induced macrophage aggregation / MGC formation in zebrafish embryos, niclosamide added to fish water; type: in vivo; conditions: for Median aggregate volume: PR3-injected zebrafish, PR3 alone 106969 (41031-465184)
# Method: The injection of intact or HI PR3 into the zebrafish was repeated in the presence or absence of the IL-6/STAT3 inhibitor niclosamide, which was added to the fish water at different concentrations (0.01-0.3 μmol/l) (FIG. 11B, C). […] Median aggregate volume PR3 vs PR3 and niclosamide 0.3, 0.15. 0.05. 0.01 μmol/ml respectively 106969 (41031-465184), 42730 (25638-324957), 44501 (26861-90354), 63043 (27395-205060), 117473 (35128-245781) (p<0.05 PR3 vs 0.3 and 0.05, p<0.001 PR3 vs 0.15 μmol/l; one way ANOVA).
# In Vivo Effect of PR3 on MGC Formation and the Ability of Niclosamide to Reduce MGC Formation In order to understand granuloma formation in vivo, a zebrafish embryo model was developed. Transgenic macrophage reporter zebrafish {Tg (MPEg: cherry)} embryos at 24 hpf, were injected into the yolk sac with human PR3 or Albumin at 1 or 5 […], either untreated or following heat inactivation. Embryos were imaged at 120 hpf with lightsheet microscopy showing volumes of fused macrophages according to the colour scale (see FIG. 8A-D). […] Median (IQR) aggregate volumes were HI albumin 5 pg/ml 22713 μm^3 (19918-31486) and HI PR3 5 pg/ml 31571 μm^3 (23137-49647) (p<0.001, one way ANOVA). In subsequent experiments, the injection of intact or HI PR3 was repeated in the presence or absence of the IL-6-STAT3 inhibitor niclosamide, added to the fish water at different concentrations (0.01-0.3 μmol/l) (see FIG. 8F-G). […] Median aggregate volume PR3 vs PR3 and niclosamide 0.3, 0.15. 0.05. 0.01 μmol/ml respectively 106969 (41031-465184), 42730 (25638-324957), 44501 (26861-90354), 63043 (27395-205060), 117473 (35128-245781) (p<0.05 PR3 vs 0.3 and 0.05, p<0.001 PR3 vs 0.15 μmol/l; one way ANOVA).
# In Vivo Danio rerio Model All animal experimental protocols were approved by University College London's Animal Welfare and Ethical Review Body (AWERB) and licensed by the UK Home Office. All experiments were performed in accordance with relevant guidelines and regulations as described in UK Home Office Project License (PPL 70/8365) awarded to Dr Paul Frankel. The Transgeneic Tg (mpeg: GFP) line was kindly provided by Professor Maggie Dallman (Imperial College London, UK). Zebrafish were maintained in mixed-sex populations at 28° C. with a 14 h: 10 h light: dark cycle from 9 am-[…] and within internationally agreed environmental parameters regarding water quality and composition. Following dechorionation and anaesthesia with tricaine (0.2 mg/ml), embryos were microinjected into the yolk sac with 5 pg/mL of PR3, heat inactivated PR3, or albumin and incubated in 10 cm Petri dishes at 28.5° C. After 5 days, living embryos were anaesthetised with tricaine (0.2 mg/ml) and embedded in 2% agarose for 3-dimensional confocal microscopy using a Ziess camera at ×200 magnification to determine macrophage fusion. Z-stacks were analysed using Imaris software version 9.2. Images were 3D rendered and aggregate volumes measured by automated thresholds.
# IL-6 = IL-6 levels in zebrafish model of granulomatous disease; type: in vivo; conditions: PR3 zebrafish model, niclosamide via fish tank water
# From the text: An in vivo model of granulomatous disease in zebrafish was developed by administering PR3 to the fish.
compound,measurement,setting,value
"Tocilizumab: humanised IgG1 monoclonal antibody against the human interleukin-6 (IL-6) receptor (RoActerma, Roche, UK)",granuloma formation,GPA patients' monocytes,reduced granuloma formation
O=[N+]([O-])c1ccc2c(c1)S(=O)(=O)C=C2 [Stattic],giant cell formation index,THP1 monocytes,significant decrease; also recorded: lower giant cell formation index
"O=C(Nc1ccc([N+](=O)[O-])cc1Cl)c1cc(Cl)ccc1O [niclosamide, Niclosamide]",aggregate volume and number,"macrophage aggregation; FIG. 8F, G, 0.3, 0.15 and 0.05 μmol/ml niclosamide compared to PR3 alone",reduction in aggregate volume and number
same,Median aggregate volume,macrophage aggregation; niclosamide 0.01 μmol/l in fish water,117473 (35128-245781) μm^3
same,Median aggregate volume,"macrophage aggregation; niclosamide 0.05 μmol/l in fish water, p<0.05",63043 (27395-205060) μm^3
same,Median aggregate volume,"macrophage aggregation; niclosamide 0.15 μmol/l in fish water, p<0.001",44501 (26861-90354) μm^3
same,Median aggregate volume,"macrophage aggregation; niclosamide 0.3 μmol/l in fish water, p<0.05",42730 (25638-324957) μm^3
same,granuloma formation,"macrophage aggregation; PR3 zebrafish model, niclosamide via fish tank water",significantly inhibit granuloma formation
same,macrophage aggregation,macrophage aggregation; after injection of enzymatically active or inactive PR3 into the yolk sac,significantly attenuated
same,MGC formation,"macrophage aggregation; zebrafish injected with intact or HI PR3, niclosamide 0.01-0.3 μmol/l in fish water, vs PR3 alone",significantly less MGC formation
same,concentration at which the reduction of MGC formation was maximal,"macrophage aggregation; zebrafish injected with intact or HI PR3, niclosamide in fish water",0.15 µmol/mL
same,IL-6 levels,IL-6,reduce IL-6 levels
